Tested on: genotype A, "Long" strain RSV
Assay: RSV-A assay (CPE, ATPlite readout in Hep-2 cells)
Type: cell-based
Details: human respiratory syncytial virus, HEp-2, Hep-2 cells, genotype A "Long" strain RSV, MOI 0.1; read-out: Human RSV-A (“Long” strain) EC50
How it was run: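 Protection from RSV-induced cytopathic effect, measured as ATPlite luminescence after 5 days, gave EC50 values. Assay used genotype A Long strain at MOI 0.1 on Hep-2 cells seeded at 8,000/well in DMEM growth media with 10% FBS; compounds tested as 2-fold dilutions in duplicate.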

| EC50 [nM] | Compound |
| --- | --- |
| < 200 | C[C@]1(C(N)=O)COc2c1cc([C@@](O)(CNC(=O)c1ccc3ncncc3c1)C(F)(F)F)nc2-c1ccc(F)cc1 [Example 248] |
| < 200 | COc1cc(C(=O)NC[C@](O)(c2cc3c(c(-c4ccc(F)cc4)n2)OC[C@]3(C)C(N)=O)C2CC2)cc2cccnc12 [Example 249] |
| < 200 | Cc1cnc2c(O)cc(C(=O)NC[C@](O)(c3cc4c(c(-c5ccc(F)c(Cl)c5)n3)OC[C@]4(C)C(N)=O)C(F)(F)F)cc2c1 [Example 253] |
| < 200 | Cc1cnc2c(OC3CC3)cc(C(=O)NC[C@](O)(c3cc4c(c(-c5ccc(F)cc5)n3)OC[C@]4(C)C(N)=O)C(F)(F)F)cc2c1 [Example 263] |
| < 200 | C[C@@H](O)COc1ccc(C(=O)NC[C@](C)(O)c2cc3c(c(-c4ccc(F)cc4)n2)OC[C@]3(C)C(N)=O)cc1OC1CC1 [Example 267] |
| < 200 | CNC(=O)[C@@]1(C)COc2c1cc([C@@](O)(CNC(=O)c1cc(OCC(N)=O)c3ncccc3c1)C(F)(F)F)nc2-c1ccc(F)cc1 [Example 276] |
| < 200 | C[C@]1(C(N)=O)COc2c1cc([C@@](O)(CNC(=O)c1cc(N)c3ncccc3c1)C(F)(F)F)nc2-c1ccc(F)cc1 [Example 279] |
| < 200 | Cc1ccc(-c2nc([C@@](O)(CNC(=O)c3cc(OC4CC4)c4ncccc4c3)C(F)(F)F)cc3c2OC[C@]3(C)C(N)=O)cc1 [Example 283] |
| > 200 | CO[C@@H](C)COc1cc(C(=O)NC[C@](O)(c2cc3c(c(-c4ccc(F)cc4)n2)OC[C@]3(C)C(N)=O)C(F)(F)F)cc2cccnc12 [Example 286] |
| > 200 | C[C@]1(C(N)=O)COc2c1cc([C@@](O)(CNC(=O)c1n[nH]c3ccncc13)C(F)(F)F)nc2-c1ccc(F)cc1 [Example 293] |
| > 200 | C[C@]1(C(N)=O)COc2c1cc([C@@](O)(CNC(=O)c1cnccn1)C(F)(F)F)nc2-c1ccc(F)cc1 [Example 299] |
| > 200 | C[C@]1(C(N)=O)COc2c1cc([C@@](O)(CNC(=O)c1ccnc(C(F)(F)F)n1)C(F)(F)F)nc2-c1ccc(F)cc1 [Example 301] |
| > 200 | COc1cncc(C(=O)NC[C@](O)(c2cc3c(c(-c4ccc(F)cc4)n2)OC[C@]3(C)C(N)=O)C(F)(F)F)c1 [Example 305] |
| > 200 | C[C@]1(C(N)=O)COc2c1cc([C@@](O)(CNC(=O)c1cn3ncccc3n1)C(F)(F)F)nc2-c1ccc(F)cc1 [Example 307] |
| > 200 | C[C@]1(C(N)=O)COc2c1cc([C@@](O)(CNC(=O)c1ccccc1)C(F)(F)F)nc2-c1ccc(F)cc1 [Example 308] |
| > 200 | COc1cccc(C(=O)NC[C@](O)(c2cc3c(c(-c4ccc(F)cc4)n2)OC[C@]3(C)C(N)=O)C(F)(F)F)c1 [Example 309] |
| > 200 | COc1cc(C(=O)NC[C@](O)(c2cc3c(c(-c4ccc(F)cc4)n2)OC[C@@]3(C)C(N)=O)C(F)(F)F)ccc1OCCF [Example 317] |
| < 200 | COc1ccc(C(=O)NC[C@](O)(c2cc3c(c(-c4ccc(F)cc4)n2)OC[C@]3(C)C(N)=O)C(F)(F)F)cc1C#N [Example 319] |

Continued, compound first:

| Compound | EC50 [nM] |
| --- | --- |
| Cc1ccnc2c(O)cc(C(=O)NC[C@](O)(c3cc4c(c(-c5ccc(F)cc5)n3)OC[C@]4(C)C(N)=O)C(F)(F)F)cc12 [Example 250] | > 200 |
| COc1cc(C(=O)NC[C@](O)(c2cc3c(c(-c4ccc(F)cc4)n2)OC[C@]3(C)C(N)=O)C(F)(F)F)cc2c(C)ccnc12 [Example 251] | > 200 |
| Cc1cnc2c(O)cc(C(=O)NC[C@](O)(c3cc4c(c(-c5ccc(F)cc5)n3)OC[C@]4(C)C(N)=O)C3CC3)cc2c1 [Example 254] | < 200 |
| COc1cc(C(=O)NC[C@](O)(c2cc3c(c(-c4ccc(F)c(Cl)c4)n2)OC[C@]3(C)C(N)=O)C2CC2)cc2cc(C)cnc12 [Example 258] | < 200 |
| COc1cc(C(=O)NC[C@](O)(c2cc3c(c(-c4ccc(C)cc4)n2)OC[C@]3(C)C(N)=O)C(F)(F)F)cc2cc(C)cnc12 [Example 259] | < 200 |
| COc1cc(C(=O)NC[C@](O)(c2cc3c(c(-c4ccc(Cl)c(F)c4)n2)OC[C@]3(C)C(N)=O)C(F)(F)F)cc2cc(C)cnc12 [Example 260] | < 200 |
| CCc1cnc2c(O)cc(C(=O)NC[C@](O)(c3cc4c(c(-c5ccc(F)cc5)n3)OC[C@]4(C)C(N)=O)C(F)(F)F)cc2c1 [Example 261] | < 200 |
| COc1cc(C(=O)NC[C@](C)(O)c2cc3c(c(-c4ccc(F)cc4)n2)OC[C@]3(C)C(N)=O)ccc1OC[C@@H](C)O [Example 264] | < 200 |
| C[C@]1(C(N)=O)COc2c1cc([C@@](O)(CNC(=O)c1ccc3ccncc3c1)C(F)(F)F)nc2-c1ccc(F)cc1 [Example 268] | < 200 |
| CC(C)(O)COc1cc(C(=O)NC[C@](O)(c2cc3c(c(-c4ccc(F)cc4)n2)OC[C@]3(C)C(N)=O)C(F)(F)F)cc2cccnc12 [Example 270] | > 200 |
| CCc1ccc2cc(C(=O)NC[C@](O)(c3cc4c(c(-c5ccc(F)cc5)n3)OC[C@]4(C)C(N)=O)C(F)(F)F)cc(O)c2n1 [Example 272] | > 200 |
| CCc1ccc2cc(C(=O)NC[C@](O)(c3cc4c(c(-c5ccc(F)cc5)n3)OC[C@]4(C)C(N)=O)C(F)(F)F)cc(OC)c2n1 [Example 273] | < 200 |
| C[C@]1(C(N)=O)COc2c1cc([C@@](O)(CNC(=O)c1cc(C#N)c3ncccc3c1)C(F)(F)F)nc2-c1ccc(F)cc1 [Example 274] | < 200 |
| C[C@]1(C(N)=O)COc2c1cc([C@@](O)(CNC(=O)c1cc(OCCF)c3ncccc3c1)C(F)(F)F)nc2-c1ccc(F)cc1 [Example 277] | < 200 |
| C[C@]1(C(N)=O)COc2c1cc([C@@](O)(CNC(=O)c1cc(OC(F)(F)F)c3ncccc3c1)C(F)(F)F)nc2-c1ccc(F)cc1 [Example 278] | < 200 |
| C[C@]1(C(N)=O)COc2c1cc([C@@](O)(CNC(=O)c1cc(OC3CC3)c3ncccc3c1)C(F)(F)F)nc2-c1ccc(Cl)c(F)c1 [Example 282] | < 200 |
| CNC(=O)[C@@]1(C)COc2c1cc([C@@](O)(CNC(=O)c1cc(NC(N)=O)c3ncccc3c1)C(F)(F)F)nc2-c1ccc(F)cc1 [Example 284] | < 200 |
| C[C@]1(C(N)=O)COc2c1cc([C@@](O)(CNC(=O)c1cc(OCC(F)F)c3ncccc3c1)C(F)(F)F)nc2-c1ccc(F)cc1 [Example 285] | < 200 |
| C[C@]1(C(N)=O)COc2c1cc([C@@](O)(CNC(=O)c1ccc3nc[nH]c3c1)C(F)(F)F)nc2-c1ccc(F)cc1 [Example 291] | < 200 |
| C[C@]1(C(N)=O)COc2c1cc([C@@](O)(CNC(=O)c1cc3cncnc3[nH]1)C(F)(F)F)nc2-c1ccc(F)cc1 [Example 292] | > 200 |

| Compound | EC50 [nM] |
| --- | --- |
| C[C@]1(C(N)=O)COc2c1cc([C@@](O)(CNC(=O)c1ccc(F)c(OC3CC3)c1)C(F)(F)F)nc2-c1ccc(F)cc1 [Example 294] | < 200 |
| C[C@]1(C(N)=O)COc2c1cc([C@@](O)(CNC(=O)c1cc(C(N)=O)ccn1)C(F)(F)F)nc2-c1ccc(F)cc1 [Example 295] | > 200 |
| C[C@]1(C(N)=O)COc2c1cc([C@@](O)(CNC(=O)c1cncc(C(N)=O)c1)C(F)(F)F)nc2-c1ccc(F)cc1 [Example 296] | > 200 |
| CCOc1ccc2[nH]c(C(=O)NC[C@](O)(c3cc4c(c(-c5ccc(F)cc5)n3)OC[C@]4(C)C(N)=O)C(F)(F)F)cc2c1 [Example 297] | > 200 |
| C[C@]1(C(N)=O)COc2c1cc([C@@](O)(CNC(=O)c1cncnc1)C(F)(F)F)nc2-c1ccc(F)cc1 [Example 298] | > 200 |
| Cn1ncc2ccc(C(=O)NC[C@](O)(c3cc4c(c(-c5ccc(F)cc5)n3)OC[C@]4(C)C(N)=O)C(F)(F)F)cc21 [Example 300] | < 200 |
| C[C@]1(C(N)=O)COc2c1cc([C@@](O)(CNC(=O)c1nc3cccnc3[nH]1)C(F)(F)F)nc2-c1ccc(F)cc1 [Example 302] | > 200 |
| C[C@]1(C(N)=O)COc2c1cc([C@@](O)(CNC(=O)c1cc3cccnc3[nH]1)C(F)(F)F)nc2-c1ccc(F)cc1 [Example 303] | < 200 |
| COc1ccc2cc(C(=O)NC[C@](O)(c3cc4c(c(-c5ccc(F)cc5)n3)OC[C@]4(C)C(N)=O)C(F)(F)F)[nH]c2c1 [Example 304] | < 200 |
| C[C@]1(C(N)=O)COc2c1cc([C@@](O)(CNC(=O)c1ccc3cc[nH]c3n1)C(F)(F)F)nc2-c1ccc(F)cc1 [Example 306] | > 200 |
| COc1cc(C(=O)NC[C@](O)(c2cc3c(c(-c4ccc(F)cc4)n2)OC[C@]3(C)C(N)=O)C(F)(F)F)ccc1O [Example 310] | < 200 |
| C[C@]1(C(N)=O)COc2c1cc([C@@](O)(CNC(=O)c1ccc3[nH]ccc3c1)C(F)(F)F)nc2-c1ccc(F)cc1 [Example 311] | < 200 |
| COc1nc2ccc(C(=O)NC[C@](O)(c3cc4c(c(-c5ccc(F)cc5)n3)OC[C@]4(C)C(N)=O)C(F)(F)F)cc2s1 [Example 312] | < 200 |
| C[C@]1(C(N)=O)COc2c1cc([C@@](O)(CNC(=O)c1ccc3c(c1)NC(=O)CO3)C(F)(F)F)nc2-c1ccc(F)cc1 [Example 313] | > 200 |
| C[C@]1(C(N)=O)COc2c1cc([C@@](O)(CNC(=O)c1ccc3nc(C(F)(F)F)sc3c1)C(F)(F)F)nc2-c1ccc(F)cc1 [Example 314] | < 200 |
| Cn1nnc2cc(C(=O)NC[C@](O)(c3cc4c(c(-c5ccc(F)cc5)n3)OC[C@]4(C)C(N)=O)C(F)(F)F)ccc21 [Example 315] | > 200 |
| COc1cc(C(=O)NC[C@](O)(c2cc3c(c(-c4ccc(F)cc4)n2)OC[C@]3(C)C(N)=O)C(F)(F)F)ccc1F [Example 316] | > 200 |
| COc1cc(C(=O)NC[C@](O)(c2cc3c(c(-c4ccc(F)cc4)n2)OC[C@]3(C)C(N)=O)C(F)(F)F)ccc1C#N [Example 318] | > 200 |
| C[C@]1(C(N)=O)COc2c1cc([C@@](O)(CNC(=O)c1ccc(C#N)c(F)c1)C(F)(F)F)nc2-c1ccc(F)cc1 [Example 320] | > 200 |
| C[C@]1(C(N)=O)COc2c1cc([C@@](O)(CNC(=O)c1ccc3[nH]c(=O)[nH]c3c1)C(F)(F)F)nc2-c1ccc(F)cc1 [Example 321] | > 200 |

Source: patent US11505558B1, “Antiviral heterocyclic compounds” (Enanta Pharmaceuticals, Inc., priority 2019, dated 2022)
